Test results taken from patent publication US9359322B2, “C-linked glucuronide of N-(4-hydroxybenzyl) retinone, analogs thereof, and methods of using the same to inhibit neoplastic cell growth” (Wisconsin Alumni Research Foundation, priority 2005, dated 2016).
Marks after values point to notes of the source that are not given here. One block for each molecule: values may come before it.

Assays:
[1] = test system: DMBA-induced rat mammary tumor; test: DMBA-induced rat mammary tumor model, retinoid-containing diets; format: in vivo
Protocol: Preliminary evaluation of the mammary tumor chemotherapeutic activity of 4-HBRCG (7) was conducted, and its toxicity profile was also assessed. As previously described,^7, 12 tumor-bearing female rats (treated ca. 50 days earlier with 7,12-dimethylbenz(a)anthracene [DMBA]) were fed the control or retinoid-containing diets (RA (2), 4-HPR (3) or 4-HBRCG (7)) at 2 mmole/kg diet for 22 days.
(§1) Animal Studies: Mammary tumors were induced by intragastric intubation of 50-day old female Sprague-Dawley rats (Harlan Industries, Indianapolis, Ind.) with a single dose of 15 mg DMBA in 1.0 ml of sesame oil per rat. The rats were then maintained on a powdered Teklad 22/5 rodent chow diet (W) 8640 (Harlan Industries, Indianapolis, Ind.), and allowed food and water ad libitum. Four months later, rats which had developed palpable tumors were randomly assigned to the experimental groups (4 rats/group). The retinoid-treated groups were fed diets supplemented with 2 mmol/kg diet of atRA, 4-HPR, or 4-HBRCG, respectively. The retinoids were added to the diet in a vehicle consisting of 25 ml of ethanol: tricaprylin (1:4 v/v) plus 2% (w/v) of α-tocopherol as previously described.^9 This vehicle was also added to the control diet. The additives were blended into the chow diets using a Hobart food mixer. The diets were fed in stainless steel feeders designed with food hoppers. The food was replaced weekly with freshly prepared diets. Food consumption was determined once weekly, and from that the average daily consumption/rat was estimated. These diets were continuously fed for 22 days. Animals were also weighted weekly and monitored for general health status and signs of possible toxicity due to treatment.
(§2) Baseline measurement of initial tumor sizes, numbers and rat body weights were determined immediately before commencement of treatments, and final measurements were recorded just prior to sacrifice of the animals. Animals were palpated for tumors twice weekly and tumor diameters were measured weekly by a micrometer caliper. Tumor volumes were calculated using the formula [V= 4/3 πr^3] where r is one-half the mean of the sum of the largest diameter and the axis at right angle to it. All tumors as well as lungs, liver, kidney and femur were excised at the end of the experiment for chemical and histopathological evaluation. Blood samples were also taken from each animal for determination of plasma retinol and triglyceride levels.

[2] = Body weight change during retinoid feeding; format: in vivo, rat; settings: relative to baseline body weight over 22 days; 2 mmol/kg diet
Protocol: as §1, §2

[3] = Plasma retinol level (HPLC); format: in vivo, rat; settings: 2 mmol/kg diet
Protocol: as §2
(§3) Plasma Retinoid Assay. To 500 μL of plasma was added 150 μL of ethanol containing 0.75 μg of internal standard (N-(4-chlorophenyl) retinamide). After mixing 30 sec., 500 μL of ethyl acetate was added followed by 1 min. of mixing and centrifugation for 5 minutes at 1000 rpm in an IEC CL centrifuge. The ethyl acetate layer was removed and syringe filtered through a 0.45 um filter. The ethyl acetate extraction was repeated two more times. The combined extracts were evaporated and the residue reconstituted in 100 μL of methanol. The methanol extract (20 μL) was analyzed by HPLC on a Beckman Instruments model 127 instrument equipped with a model 166 UV detector. Chromatography was done on a precolumn equipped 250×4.6 mm Bechman Ultrasphere ODS column with an 85% methanol/water mobile phase (both containing 10 mM ammonium acetate) flowing at 1 mL/min. Analysis for both internal standard and retinol was conducted at 350 nm and internal standard recoveries and retinol levels were determined by comparison with standard curves, with adjustment of the retinol level based on recovery. Recoveries of internal standard averaged ca. 78%. […] In the 4-HPR treated group, plasma levels of this retinoid were evaluated simultaneously in the same samples as above. In order to avoid interfering substances, plasma treatment retinoid levels for RA and 4-HBRCG were measured using the above system and a step gradient of 75% methanol for 15 min. followed by 85% methanol for 40 minutes.

[4] = Terminal plasma drug levels (plasma retinoid assay, HPLC); format: in vivo, rat; settings: day 22 of treatment; 2 mmol/kg diet; ± SEM
Protocol: as §3

[5] = Plasma triglyceride measurement; format: in vivo, rat; settings: 2 mmol/kg diet, 22 days; FIG. 2A
Protocol: Plasma Triglyceride Measurement. Bloods were drawn from anesthetized animals in the presence of EDTA as an anticoagulant, and the resulting plasma was used for the measurement of plasma “true” triglyceride levels using a kit from Sigma-Aldrich (Saint Louis, Mo.). Briefly, the total plasma triglyceride and glycerol concentrations were determined, and the glycerol component was subtracted from the total plasma triglyceride measurement to obtain the “true” serum triglyceride concentration.

[6] = Femur bone mineral content; format: in vivo, rat; settings: end of feeding study; FIG. 2B
Text: Bone Mineral Content. The femur was disarticulated from the leg, and the adhering soft tissue was removed by dissection. Femurs were scanned using the Lunar PIXImus 2 system (Model X2608, General Electric using the LUNAR software version 1.45), and control measurements were made using the small animal quality control phantom. Femurs were scanned 5 times each with re-positioning at each measure. The average value of the bone mineral content (BMC) in grams for each animal is reported as one independent measure.

CYP26A1 mRNA = test: Induction of CYP26A1 mRNA in liver (Q-PCR); format: in vivo, rat; settings: at sacrifice, retinoid-fed rats, 2 mmol/kg diet; FIG. 4
CYP26B1 mRNA [7] = test: Induction of CYP26B1 mRNA in lung (Q-PCR); format: in vivo, rat; settings: at sacrifice, retinoid-fed rats, 2 mmol/kg diet; data not shown
[8] = test system: DMBA-induced rat mammary tumor; settings: cited from earlier work
RARβ = molecular target: T1, RARβ (Homo sapiens, UniProt P10826); settings: cited from earlier work
T1 sequence (P10826 1-455): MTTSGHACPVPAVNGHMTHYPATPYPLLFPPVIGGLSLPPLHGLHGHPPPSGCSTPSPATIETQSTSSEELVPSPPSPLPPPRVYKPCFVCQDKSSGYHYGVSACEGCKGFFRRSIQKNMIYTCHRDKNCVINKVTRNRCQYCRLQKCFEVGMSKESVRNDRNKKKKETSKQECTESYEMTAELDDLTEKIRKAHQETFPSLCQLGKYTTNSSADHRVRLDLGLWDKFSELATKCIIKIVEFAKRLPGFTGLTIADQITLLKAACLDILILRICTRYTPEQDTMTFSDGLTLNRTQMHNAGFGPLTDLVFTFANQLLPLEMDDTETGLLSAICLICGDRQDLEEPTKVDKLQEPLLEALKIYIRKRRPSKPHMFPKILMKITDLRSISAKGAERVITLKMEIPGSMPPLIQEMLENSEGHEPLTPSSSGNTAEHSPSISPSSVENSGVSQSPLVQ

RARγ = molecular target: T2, RARγ (Homo sapiens, UniProt P13631); settings: cited from earlier work
T2 sequence (P13631 1-454): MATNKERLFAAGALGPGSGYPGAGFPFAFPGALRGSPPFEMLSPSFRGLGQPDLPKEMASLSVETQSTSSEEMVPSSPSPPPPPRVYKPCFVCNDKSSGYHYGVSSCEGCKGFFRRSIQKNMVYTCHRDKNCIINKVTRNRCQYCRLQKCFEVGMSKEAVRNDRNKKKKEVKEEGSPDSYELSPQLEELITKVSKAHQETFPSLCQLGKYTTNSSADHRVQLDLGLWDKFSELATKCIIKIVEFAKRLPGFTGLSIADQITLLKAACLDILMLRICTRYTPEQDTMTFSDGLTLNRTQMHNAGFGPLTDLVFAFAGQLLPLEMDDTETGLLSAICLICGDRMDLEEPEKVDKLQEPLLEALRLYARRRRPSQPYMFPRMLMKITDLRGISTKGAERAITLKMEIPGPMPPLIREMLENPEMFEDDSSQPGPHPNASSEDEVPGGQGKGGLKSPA

CYP26B1 mRNA [9] = settings: vitamin A-deficient rats; background; cited from earlier work
[10] = background statement; cited from earlier work
[11] = molecular target: serum retinol-binding protein, RBP (Homo sapiens, UniProt P02753); settings: cited from earlier work
[12] = vitamin A-deficient rats; cited from earlier work
[13] = cited from earlier work
[14] = number of individual tumors, 2 mmol/kg diet, 22 days

Effect on blood retinol [3]: the same amount of 4-HPR did
Plasma retinol ([3]; day 22 of treatment, mean ± SEM): 0.21 ± 0.05 ^e μg/ml
Plasma retinoid concentration (terminal plasma drug level) [4]: 0.67 ± 0.07 µg/mL
Effect on serum triglyceride concentration [5]: small but insignificant increase
Effect on femur bone mineral content vs control [6]: showed no such effect
Compound: CC1=C(/C=C/C(C)=C/C=C/C(C)=C/C(=O)Nc2ccc(O)cc2)C(C)(C)CCC1 [4-HPR (3), N-(4-hydroxyphenyl) retinamide]
% Change in tumor volume from baseline ([1]; 2 mmol/kg diet for 22 days): −33 ^d %
Final tumor volume ([1]; 2 mmol/kg diet for 22 days, mean ± SEM): 0.08 ± 0.02 cm^3
Initial tumor volumes ([1]; baseline before treatment, mean ± SEM): 0.12 ± 0.03 cm^3
Complete regression (tumors that totally disappeared) [1, 14]: 1
No effect [1, 14]: 3
Partial regression (tumors with 25-75% decrease in volume) [1, 14]: 15
New tumors ([1]; number of tumors, 2 mmol/kg diet, 22 days): 0
% Weight change [2]: +3%
Induction of CYP26A1 mRNA in liver (CYP26A1 mRNA): 37 fold above control
Induction of CYP26B1 mRNA in lung (CYP26B1 mRNA [7]): 20 fold above control
Chemotherapeutic activity in DMBA-induced rat mammary tumor model [8]: equiactive chemotherapeutics
Times less potent than atRA in competing for [3H]atRA binding to RARβ (RARβ): ~3000 times
Times less able than atRA to compete for binding to RARγ (RARγ): 2500 times
Induction of CYP26B1 mRNA expression in lungs (CYP26B1 mRNA [9]): induces CYP26B1 mRNA expression in a RA-like manner
Teratogenicity relative to RA [10]: 100 times less teratogenic than RA
Binding to RBP [11]: equivalent binding to RBP
Hydrolysis to liberate retinoic acid [12]: is hydrolyzed to liberate retinoic acid

Compound: CC1=C(/C=C/C(C)=C/C=C/C(C)=C/C(=O)Cc2ccc(O)cc2)C(C)(C)CCC1 [4-HBR, 4-hydroxybenzyl retinone]
Chemotherapeutic activity in DMBA-induced rat mammary tumor model [8]: equiactive chemotherapeutics
Effect on blood retinol levels [13]: does not lower blood retinol levels
Binding to RBP [11]: equivalent binding to RBP
